One experiment deals with T1, human DHODH (Homo sapiens, UniProt Q02127).
T1 construct: purchased Proteros PR-0044
Briefly: DHODH Enzymatic Assay. Format: biochemical. Conditions: purified human DHODH; DCIP absorbance, end-point mode. How it is done: To detect DHODH enzyme activities, dichloroindophenol (DCIP) is added as the final electron acceptor in the assay. DCIP can accept electrons from the reduced coenzyme Q generated in the assay, or from dihydroorotate (DHO) via FMN by binding presumably to the ubiquinone pocket. DCIP solutions are blue, with an intense absorbance around 600 nm, but becomes colorless upon reduction (J. Biol. Chem. (1986) 261, 11386). The assay buffer contained […], pH 7.5, 150 mM NaCl, 0.5 mM EDTA, and 0.1% Triton X-100 in MilliQ water. Substrate consisting of 20 mM DHO, 5 mM CoQ6, and 1 mM DCIP in assay buffer, initiates the reaction. The assay is run in end-point mode by quenching the reaction with the potent DHODH inhibitor brequinar. Absorbance measurements were obtained using the BMG Phera Star plate-reading spectrophotomer. Purified human DHODH was purchased from Proteros (cat. No. PR-0044). Chemicals were purchased from Sigma-Aldrich, Teknova, and Avanti Polar Lipids. Liquid handling was performed using Labcyte Echo and Formulatrix Tempest.

A further experiment concerns MOLM-13 cells. Description: MOLM-13 Cellular Assay. The conditions noted are these: Homo sapiens, MOLM-13, 72 h, 72 hours exposure, cell viability by CellTiter-Glo. The experiment is classed as cell-based. The procedure:
MOLM-13 cells were obtained from DSMZ and were maintained in RPMI 1640+Glutamax+25 mM HEPES (Invitrogen, catalog number 72400) supplemented with 10% heat inactivated fetal bovine serum (FBS; Invitrogen, catalog number 16140). The day prior to assay set-up, cells were pelleted, resuspended in fresh media, counted, and cells were plated at 0.4×10^6 cell/mL in a T150 flask. On the day of the assay, cells were pelleted, resuspend in fresh media, counted, and seeded at 5,000 cells/well in white opaque 96-well tissue culture treated microplates (Perkin Elmer, catalog number 6005680). Cells were exposed to different concentrations of test compounds at 37° C., 5% CO2 for 72 hours immediately after seeding. Cell viability was acquired on a Perkin Elmer Envision 2104 multilabel reader using the CellTiter-Glo assay (Promega) according to the manufacturer's instructions.
A general note: In ATP-based viability assays light output follows the ATP content of the culture.

T1 sequence (Q02127 whole entry): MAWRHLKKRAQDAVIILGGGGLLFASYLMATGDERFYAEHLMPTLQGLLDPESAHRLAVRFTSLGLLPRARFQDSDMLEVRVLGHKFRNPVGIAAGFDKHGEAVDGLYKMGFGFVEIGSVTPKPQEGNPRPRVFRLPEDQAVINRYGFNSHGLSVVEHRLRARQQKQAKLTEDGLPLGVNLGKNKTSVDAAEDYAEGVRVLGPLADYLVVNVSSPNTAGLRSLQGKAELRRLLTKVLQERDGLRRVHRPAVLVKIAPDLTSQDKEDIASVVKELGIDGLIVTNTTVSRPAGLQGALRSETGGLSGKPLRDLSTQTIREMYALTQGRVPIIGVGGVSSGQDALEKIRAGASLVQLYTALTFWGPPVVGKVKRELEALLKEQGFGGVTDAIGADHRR

Consider `CCn1c(CO)nn(-c2cc3c(C(C)C)cc(-c4c(C)cnc(OC)c4Cl)nc3cc2F)c1=O` [Example 7, 1-(2-(3-Chloro-2-methoxy-5-methylpyridin-4-yl)-7-fluoro-4-isopropylquinolin-6-yl)-4-ethyl-3-(hydroxymethyl)-1H-1,2,4-triazol-5 (4H)-one], for which the IC50 against human DHODH is 1.5 nM; with MOLM-13 cells, 4 nM. The like results for `CCn1c(CO)nn(-c2cc3c(C(C)C)cc(-c4cc(O)ncc4C)nc3cc2F)c1=O` [Example 24, 4-Ethyl-1-(7-fluoro-2-(2-hydroxy-5-methylpyridin-4-yl)-4-isopropylquinolin-6-yl)-3-(hydroxymethyl)-1H-1,2,4-triazol-5 (4H)-one] were, in that order, 33 nM and above 100 nM. Take `CCn1c(CO)nn(-c2cc3c(C(C)C)cc(N4CCCC[C@@H]4C)nc3cc2F)c1=O` [Example 17, (S)-4-Ethyl-2-(7-fluoro-4-isopropyl-2-(2-methylpiperidin-1-yl)quinolin-6-yl)-5-(hydroxymethyl)-2,4-dihydro-3H-1,2,4-triazol-3-one]: the IC50 against human DHODH is 230 nM; in the experiment on MOLM-13 cells it was 40 nM. In the same order, the values of `CCn1c(CO)nn(-c2cc3c(C(C)C)nc(-c4ccccc4C)nc3cc2F)c1=O` [Example 10, 4-Ethyl-2-(7-fluoro-4-isopropyl-2-(o-tolyl)quinazolin-6-yl)-5-(hydroxymethyl)-2,4-dihydro-3H-1,2,4-triazol-3-one] are 1.9 nM and 2.2 nM.

Turning to `CCn1c(CO)nn(-c2cc3c(C(C)C)cc(-c4cc(OC)ncc4C)nc3cc2F)c1=O` [Example 8, 4-Ethyl-1-(7-fluoro-4-isopropyl-2-(2-methoxy-5-methylpyridin-4-yl)quinolin-6-yl)-3-(hydroxymethyl)-1H-1,2,4-triazol-5 (4H)-one], the concentration for half-maximal inhibition (IC50) against human DHODH was found to be 4.8 nM; in the experiment with MOLM-13 cells, 9.1 nM. The like results for `CCn1c(CO)nn(-c2cc3c(C(C)C)cc(-c4ccccc4OC)nc3cc2F)c1=O` [Example 1, 4-Ethyl-1-(7-fluoro-4-isopropyl-2-(2-methoxyphenyl)quinolin-6-yl)-3-(hydroxymethyl)-1H-1,2,4-triazol-5 (4H)-one] were, in that order, 3.3 nM and 2.6 nM. In the same order, the values of `CCn1c(CO)nn(-c2cc3c(C(C)C)cc(-c4c(C(F)(F)F)n[nH]c4C)nc3cc2F)c1=O` [Example 3, 4-Ethyl-1-(7-fluoro-4-isopropyl-2-(5-methyl-3-(trifluoromethyl)-1H-pyrazol-4-yl)quinolin-6-yl)-3-(hydroxymethyl)-1H-1,2,4-triazol-5 (4H)-one] are 0.58 nM and 0.7 nM. In the same order, the values of `CCC(CC)Oc1cc(C(C)C)c2cc(-n3nc(CO)n(CC)c3=O)c(F)cc2n1` [Example 5, 4-Ethyl-1-(7-fluoro-4-isopropyl-2-(pentan-3-yloxy)quinolin-6-yl)-3-(hydroxymethyl)-1H-1,2,4-triazol-5 (4H)-one] are 332 nM and above 100 nM. Consider `CCn1c(CO)nn(-c2cc3c(C(C)C)cc(N4CCCC[C@H]4C)nc3cc2F)c1=O` [Example 18, (R)-4-Ethyl-2-(7-fluoro-4-isopropyl-2-(2-methylpiperidin-1-yl)quinolin-6-yl)-5-(hydroxymethyl)-2,4-dihydro-3H-1,2,4-triazol-3-one], for which the IC50 is 2280 nM on human DHODH and above 100 nM with MOLM-13 cells. In the same order, the values of `CCn1c(CO)nn(-c2cc3c(C(C)C)cc(-c4c(C(F)(F)F)n[nH]c4Cl)nc3cc2F)c1=O` [Example 27, 1-(2-(5-Chloro-3-(trifluoromethyl)-1H-pyrazol-4-yl)-7-fluoro-4-isopropylquinolin-6-yl)-4-ethyl-3-(hydroxymethyl)-1H-1,2,4-triazol-5 (4H)-one] are 0.7 nM and 6 nM.

Turning to `CCn1c(CO)nn(-c2cc3c(C(C)C)cc(-c4c(C)cnc(O)c4C)nc3cc2F)c1=O` [Example 19, 4-Ethyl-2-(7-fluoro-2-(2-hydroxy-3,5-dimethylpyridin-4-yl)-4-isopropylauinolin-6-yl)-5-(hydroxymethyl)-2,4-dihydro-3H-1,2,4-triazol-3-one], the IC50 is 12 nM on human DHODH and above 100 nM with MOLM-13 cells.

`CCn1c(CO)nn(-c2cc3c(C(C)C)cc(-c4c(C)ccnc4Cl)nc3cc2F)c1=O` [Example 35, 1-(2-(2-Chloro-4-methylpyridin-3-yl)-7-fluoro-4-isopropylquinolin-6-yl)-4-ethyl-3-(hydroxymethyl)-1H-1,2,4-triazol-5 (4H)-one]: the IC50 against human DHODH is 4.7 nM; in the experiment with MOLM-13 cells, 4 nM.

For `CCn1c(CO)nn(-c2cc3c(C(C)C)cc(-c4c(C)ccnc4OC)nc3cc2F)c1=O` [Example 11, 4-Ethyl-2-(7-fluoro-4-isopropyl-2-(2-methoxy-4-methylpyridin-3-yl)quinolin-6-yl)-5-(hydroxymethyl)-2,4-dihydro-3H-1,2,4-triazol-3-one], the IC50 was determined as 32 nM against human DHODH and 30 nM in the experiment on MOLM-13 cells. In the same order, the values of `CCn1c(CO)nn(-c2cc3c(C(C)C)cc(-c4c[nH]nc4C)nc3cc2F)c1=O` [Example 16, 4-Ethyl-2-(7-fluoro-4-isopropyl-2-(3-methyl-1H-pyrazol-4-yl)quinolin-6-yl)-5-(hydroxymethyl)-2,4-dihydro-3H-1,2,4-triazol-3-one] are 9.4 nM and above 30 nM. The like results for `CCn1c(CO)nn(-c2cc3c(C(C)C)cc(-c4c(C)cnc(OC)c4C)nc3cc2F)c1=O` [Example 4, 4-Ethyl-1-(7-fluoro-4-isopropyl-2-(2-methoxy-3,5-dimethylpyridin-4-yl)quinolin-6-yl)-3-(hydroxymethyl)-1H-1,2,4-triazol-5 (4H)-one] were, in that order, 1.7 nM and 8.4 nM. In the same order, the values of `CCn1c(CO)nn(-c2cc3c(C(C)C)cc(-c4c(Cl)c(OC)nn4C)nc3cc2F)c1=O` [Example 26, 2-(2-(4-Chloro-3-methoxy-1-methyl-1H-pyrazol-5-yl)-7-fluoro-4-isopropylauinolin-6-yl)-4-ethyl-5-(hydroxymethyl)-2,4-dihydro-3H-1,2,4-triazol-3-one] are 13 nM and 7 nM. As to `CCn1c(CO)nn(-c2cc3c(C(C)C)cc(-n4nc(C)cc4C)nc3cc2F)c1=O` [Example 12, 1-(2-(3,5-Dimethyl-1H-pyrazol-1-yl)-7-fluoro-4-isopropylquinolin-6-yl)-4-ethyl-3-(hydroxymethyl)-1H-1,2,4-triazol-5 (4H)-one], the IC50 on human DHODH is 2.3 nM; in the experiment with MOLM-13 cells, 5 nM.

Regarding `CCn1c(CO)nn(-c2cc3c(C(C)C)cc(-c4c[nH]nc4C4CC4)nc3cc2F)c1=O` [Example 15, 1-(2-(3-Cyclopropyl-1H-pyrazol-4-yl)-7-fluoro-4-isopropylquinolin-6-yl)-4-ethyl-3-(hydroxymethyl)-1H-1,2,4-triazol-5 (4H)-one], the IC50 was found to be 13 nM on human DHODH and 20 nM in the experiment with MOLM-13 cells. In the same order, the values of `CCn1c(CO)nn(-c2cc3c(C(C)C)cc(-c4ccnc(O)c4C)nc3cc2F)c1=O` [Example 22, 4-Ethyl-1-(7-fluoro-2-(2-hydroxy-3-methylpyridin-4-yl)-4-isopropylquinolin-6-yl)-3-(hydroxymethyl)-1H-1,2,4-triazol-5 (4H)-one] are 3.9 nM and above 100 nM. As to `CCn1c(CO)nn(-c2cc3c(C(C)C)cc(C4CCOCC4)nc3cc2F)c1=O` [Example 20, 4-Ethyl-1-(7-fluoro-4-isopropyl-2-(tetrahydro-2H-pyran-4-yl)quinolin-6-yl)-3-(hydroxymethyl)-1H-1,2,4-triazol-5 (4H)-ene], the IC50 against human DHODH was 730 nM; with MOLM-13 cells, above 100 nM. As for `CCn1c(CO)nn(-c2cc3c(C(C)C)cc(-c4ccccc4C)nc3cc2F)c1=O` [Example 9, 4-Ethyl-1-(7-fluoro-4-isopropyl-2-(o-tolyl)quinolin-6-yl)-3-(hydroxymethyl)-1H-1,2,4-triazol-5 (4H)-one], the IC50 against human DHODH worked out at 0.6 nM; with MOLM-13 cells it was 0.5 nM. In the same order, the values of `Cc1n[nH]c(Cl)c1-c1cc(C(C)C)c2cc(-c3nc(CO)n(C)n3)c(F)cc2n1` [Example 30, (3-(2-(5-Chloro-3-methyl-1H-pyrazol-4-yl)-7-fluoro-4-isopropylauinolin-6-yl)-1-methyl-1H-1,2,4-triazol-5-yl)methanol] are 1.2 nM and 2 nM. In turn, `[2H]C([2H])([2H])c1ccccc1-c1cc(C(C)C)c2cc(-n3nc(CO)n(CC)c3=O)c(F)cc2n1` [Example 38, 4-Ethyl-1-(7-fluoro-4-isopropyl-2-(o-methyl-d3-phenyl)quinolin-6-yl)-3-(hydroxymethyl)-1H-1,2,4-triazol-5 (4H)-one] showed an IC50 against human DHODH of 1.7 nM.

As a reminder, the IC50 is the midpoint of a concentration-inhibition curve. A higher IC50 goes with lower potency.

Values taken from patent publication US20230037448A1, “FLUORINATED QUINOLINE AND QUINOXALINE DERIVATIVES AS DIHYDROOROTATE DEHYDROGENASE (DHODH) INHIBITORS FOR THE TREATMENT OF CANCER, AUTOIMMUNE AND INFLAMMATORY DISEASES” (Janssen Biotech, Inc., priority 2019, published 2023).
